{"source": "patent US12624122B2", "about": "“Affinity maturated TAG72 specific single chain antibodies” (H. Lee Moffitt Cancer Center and Research Institute, Inc., priority 2016, dated 2026)", "format_in_all_cases": "cell-based", "key": {"MCF-7 cells": {"system": "MCF-7 cells", "experiment": "flow cytometry apoptosis (annexin V and PI), MCF-7 cells with human CD8 T cells", "source_text": "(§1) FIGS. 5 to 96 are flow cytometry plots testing the disclosed bispecific antibodies. Table 1 summarizes flow cytometry results measuring apoptosis with annexin V and PI in gated populations of MCF-7 and MDA-231 cells treated with human CD8 T cells with bi-specific antibodies plus or minus the photosensitizing compound verteporfin."}, "[1]": {"system": "programmed cell death ligand 1 (PDL1)", "experiment": "tumor cell PDL1 surface expression"}, "MDA-231 cells": {"system": "MDA-231 cells", "experiment": "flow cytometry apoptosis (annexin V and PI), MDA-231 cells with human CD8 T cells", "source_text": "as §1"}}, "data": [{"substance": "verteporfin [Vs]", "values": [{"measurement": "Control group (%) viable cells", "setting": "MCF-7 cells; CD8 + Vs (1 μM)", "value": "(19) %"}, {"measurement": "Control group (%) viable cells", "setting": "MCF-7 cells; CD8 + Vs (2 μM)", "value": "(13.3) %"}, {"measurement": "Control group (%) viable cells", "setting": "MCF-7 cells; CD8 + Vs (5 μM)", "value": "(7.51) %"}, {"measurement": "tumor cell PDL1 surface expression", "setting": "[1]", "value": "reduce tumor cell programmed cell death ligand 1 (PDL1) surface expression"}, {"measurement": "Control group (%) viable cells", "setting": "MDA-231 cells; CD8 + Vs (1 μM)", "value": "(56.3) %"}, {"measurement": "Control group (%) viable cells", "setting": "MDA-231 cells; CD8 + Vs (2 μM)", "value": "(57.4) %"}, {"measurement": "Control group (%) viable cells", "setting": "MDA-231 cells; CD8 + Vs (5 μM)", "value": "(55.3) %"}]}]}
